Measurements from patent EP0002426B1, “Antiperspirant” (priority 1977, dated 1979).
Several values for one entry are separate records, joined by “and”; a condition that tells them apart may be missing. Equal values may be shown once. Read-outs that look alike come from different tables or passages of the source.

What was measured:
[1] = cited from earlier work
[2] = Pain on intradermal injection of adrenaline solution in the test areas; type: in vivo; conditions: 0.1 ml adrenaline 1:10 000 in the test area; all volunteers
Description: (§1) Just under the apex of each test area triangle an intradermal wheal 0.1 ml adrenaline 1:10 000 was injected. Pain on injection was noted. The test area was then swabbed with OPT (5% orthophthaldialdehyde in xylol). After drying the OPT-applied area a plastic ring with adhesive on the back side was placed over the visible vasoconstricted area caused by the adrenaline effect, within the test triangle previously covered by the test compositions. The number of black-coloured sweat pores within the standardized diameter hole in the plastic rings was counted under a direct vision microscope.
All volunteers reported pain at the intradermal injection of adrenaline solution at the placebo, the lidocaine and the prilocaine areas but not at the lidocaine-prilocaine areas.

dermal analgesia = experiment: Pin-prick test of dermal analgesia after epidermal application of local anesthetic emulsions on the forearm; type: in vivo, volunteers; conditions: for Pin-prick test, M1–10: mean of patients 1-10 (out of 10 pin-pricks); for Pin-prick test, M1–12: mean of patients 1-12; for dermal analgesia, effectiveness versus placebo emulsion: under occlusion as well as under a non-occlusive bandage
Description: (§2) The anti perspiration effect of the present invention was determined in an experimental investigation of dermal analgesia and influence upon adrenaline-induced local sweating by epidermal application of different local anesthetic formulations.
(§3) 12 healthy medical students took part in the study.
(§4) Pre-formed pads, consisting of cellulose fibres, 2 times 2 centimetres, were soaked by a standardized procedure in either an emulsion containing 5% lidocaine base + 5% prilocaine base, an emulsifying agent and water, 10% lidocaine base in the same vehicle, 10% prilocaine base in the same vehicle, or a placebo emulsion containing the emulsifying agent and water only. On one forearm of the volunteer the four different emulsions were applied under occlusive dressings consisting of an impervious tape, while on the other arm the four emulsions were applied under a non-occlusive dressing, using surgical tape (3M). A certain distance between the application areas was chosen in order to avoid any risk of interference between them.
(§5) On the arms of the volunteers 11 and 12 the emulsions were applied directly to the skin, with no cellulose pads, but with occlusive and non-occlusive dressings applied as in the other volunteers.
(§6) The application time for the pads was 60 minutes.
(§7) Immediately after removal of the pads, the square areas under the two types of dressing were marked at the edges. A line was also marked within each applied area dividing them into two identical triangles. One of these surfaces were then used by pin-prick experiments, the other for studying the sweat response.
The pin-pricking procedure was carried out with disposable dental needles. In each of the test areas 10 pin-pricks were made. 10/10 represents full analgesia, 0/10 no analgesia.

[3] = tested on: adrenaline-induced local sweating; experiment: OPT-test of sweat response after intradermal adrenaline, epidermal application of local anesthetic emulsions on the forearm; type: in vivo, volunteers; conditions: for sweat response, induced by intracutaneous administration of adrenaline: 12 volunteers, epidermal application; for number of black-coloured sweat pores (OPT-test), M1-10: mean of patients 1-10; for number of black-coloured sweat pores (OPT-test), M1-12: mean of patients 1-12
Description: as §2, §3, §4, §5, §6, §7, §1

[4] = Non-Occlusion, individual Patient No 1-10, pads, 60 minutes, 10/10 full analgesia, 0/10 no analgesia
[5] = Non-Occlusion, individual Patient No 11, 12, emulsions applied directly to the skin, no cellulose pads
[6] = Occlusion, individual Patient No 1-10, pads, 60 minutes, 10 pin-pricks, 10/10 full analgesia, 0/10 no analgesia
[7] = Occlusion, individual Patient No 11, 12, emulsions applied directly to the skin, no cellulose pads
[8] = Non-Occlusion, individual Patient No 1-10, soaked cellulose pads, 60 minutes
[9] = Occlusion, individual Patient No 1-10, soaked cellulose pads, 60 minutes, L—P 5%+5%, L 10%, P 10% emulsion
[10] = total concentration of 10%, aqueous emulsion

SMILES | pain at the intradermal injection of adrenaline solution [2] | Pin-prick test (dermal analgesia; [4]) | Pin-prick test (dermal analgesia; [5]) | Pin-prick test, M1–10 (dermal analgesia; Non-Occlusion) | Pin-prick test, M1–12 (dermal analgesia; Non-Occlusion) | Pin-prick test (dermal analgesia; [6]) | Pin-prick test (dermal analgesia; [7]) | Pin-prick test, M1–10 (dermal analgesia; Occlusion) | Pin-prick test, M1–12 (dermal analgesia; Occlusion) | dermal analgesia, effectiveness versus placebo emulsion (dermal analgesia) | sweat response, induced by intracutaneous administration of adrenaline [3] | number of black-coloured sweat pores (OPT-test) [3, 8] | number of black-coloured sweat pores (OPT-test) [3, 5] | number of black-coloured sweat pores (OPT-test), M1-10 ([3]; Non-Occlusion) | number of black-coloured sweat pores (OPT-test), M1-12 ([3]; Non-Occlusion) | number of black-coloured sweat pores (OPT-test) [3, 9] | number of black-coloured sweat pores (OPT-test) [3, 7] | number of black-coloured sweat pores (OPT-test), M1-10 ([3]; Occlusion) | number of black-coloured sweat pores (OPT-test), M1-12 ([3]; Occlusion) | sweat response, effectiveness versus placebo ([3]; under non-occlusive bandage) | also measured
CCN(CC)CCOC(=O)c1ccc(N)cc1 [procaine] | – | – | – | – | – | – | – | – | – | – | – | – | – | – | – | – | – | – | – | – | antihydrotic effect ([1]; administered electrophoretically): possesses an antihydrotic effect; antihydrotic effect ([1]; without electrophoresis, only topically): will not give any antihydrotic effect
CCN(CC)CC(=O)Nc1c(C)cccc1C [L, Diethylaminoacet-2',6'-xylidide] | reported pain | 0/10 (9×) and 1/10 | 0/10 | 0.10 | 0.08 | 0/10 (5×) and 2/10 (3×) and 5/10 and 3/10 | 8/10 and 6/10 | 1.40 | 2.33 | insignificantly more effective than the placebo emulsion | partly blocked | 42 and 24 (4×) and 29 and 27 and 25 and 19 and 32 | 22 and 33 | 27.0 | 27.08 | 22 (2×) and 25 and 20 (2×) and 24 (2×) and 16 (2×) and 28 | 12 and 26 | 21.7 | 21.25 | more effective than placebo | sweat response, effectiveness versus placebo ([3]; under occlusive bandage): significantly more effective than placebo
CCCNC(C)C(=O)Nc1ccccc1C (stereo not shown) [P, 2-propylamino-N-(2-tolyl)propionamide] | reported pain | 1/10 and 0/10 (8×) and 6/10 | 2/10 and 0/10 | 0.70 | 0.75 | 2/10 and 0/10 (6×) and 10/10 and 1/10 | 7/10 and 9/10 | 1.44 | 2.64 | insignificantly more effective than the placebo emulsion | partly blocked | 46 and 18 (2×) and 34 and 24 and 26 (2×) and 25 and 21 and 40 | 14 and 20 | 27.8 | 26.0 | 24 (2×) and 30 and 17 and 52 and 18 and 22 and 15 and 28 | 24 and 16 | 25.6 | 24.54 | more effective than placebo | dermal analgesia (pin-pricking), compared among the tested formulations (dermal analgesia; [10]): less effective; sweat response inhibition, compared among the tested formulations [3, 10]: less effective; sweat response, effectiveness versus placebo ([3]; under occlusive bandage): significantly more effective than placebo
